How the values were obtained:
[1] = system: Ba/F3 cells transfected with FLT3 ITD-F691L; test: Cytotoxicity in isogenic transfected Ba/F3 cells (Table 4); assay type: cell-based, Murin; details: Mus musculus, BaF3; n = 3; read-out: IC50 in Transfected Ba/F3 cells, FLT3 ITD-F691L
[2] = system: Ba/F3 cells transfected with FLT3 ITD-D835Y; test: as above; assay type: cell-based, Murin; details: Mus musculus, BaF3; n = 3; read-out: IC50 in Transfected Ba/F3 cells, FLT3 ITD-D835Y
[3] = system: Ba/F3 cells transfected with FLT3 D835Y; test: as above; assay type: cell-based, Murin; details: Mus musculus, BaF3; n = 3; read-out: IC50 in Transfected Ba/F3 cells, FLT3 D835Y
[4] = system: Ba/F3 cells transfected with FLT3 ITD; test: as above; assay type: cell-based, Murin; details: Mus musculus, BaF3; n = 3; read-out: IC50 in Transfected Ba/F3 cells, FLT3 ITD
[5] = system: Ba/F3 cells transfected with FLT3 WT; test: as above; assay type: cell-based, Murin; details: Mus musculus, BaF3; n = 3; read-out: IC50 in Transfected Ba/F3 cells, FLT3 WT
[6] = system: MV4-11 (FLT3-ITD, t(4:11)); test: Antiproliferative activity (Table 6); assay type: cell-based; details: Homo sapiens; MV4-11; 48 h (Gilteritinib); read-out: IC50
[7] = system: Ba/F3-ITD (FLT3-ITD); test: Antiproliferative activity (Table 6); assay type: cell-based, Murin; details: Ba/F3-ITD; 48 h (Gilteritinib); read-out: IC50
[8] = system: Kasumi-1 (FLT3-WT); test: Antiproliferative activity (Table 6); assay type: cell-based; details: Homo sapiens; Kasumi-1; 48 h (Gilteritinib); read-out: IC50
[9] = system: Ba/F3-ITD + D835Y (FLT3-ITD + D835Y); test: Antiproliferative activity (Table 6); assay type: cell-based, Murin; details: Ba/F3-ITD + D835Y; 48 h (Gilteritinib); read-out: IC50
[10] = system: MOLM14 (FLT3-ITD, t(9:11)); test: Antiproliferative activity (Table 6); assay type: cell-based; details: Homo sapiens, MOLM-14; MOLM14; 48 h (Gilteritinib); read-out: IC50
[11] = system: Ba/F3-D835G (FLT3-D835G); test: Antiproliferative activity (Table 6); assay type: cell-based, Murin; details: Ba/F3-D835G; 48 h (Gilteritinib); read-out: IC50
[12] = system: Ba/F3-ITD + D835H (FLT3-ITD + D835H); test: Antiproliferative activity (Table 6); assay type: cell-based, Murin; details: Ba/F3-ITD + D835H; 48 h (Gilteritinib); read-out: IC50
[13] = system: Ba/F3-ITD + 842 (ITD + Y842C); test: Antiproliferative activity (Table 6); assay type: cell-based, Murin; details: Ba/F3-ITD + 842 (ITD + Y842C); 48 h (Gilteritinib); read-out: IC50
[14] = system: MOLM13 (FLT3-ITD, t(9:11)); test: Antiproliferative activity (Table 6); assay type: cell-based; details: Homo sapiens, MOLM-13; MOLM13; 48 h (Gilteritinib); read-out: IC50
[15] = system: Ba/F3-ITD + 691 (ITD + F691L); test: Antiproliferative activity (Table 6); assay type: cell-based, Murin; details: Ba/F3-ITD + 691 (ITD + F691L); 48 h (Gilteritinib); read-out: IC50
[16] = system: Ba/F3-FLT3 (FLT3-WT); test: Antiproliferative activity (Table 6); assay type: cell-based, Murin; details: Ba/F3-FLT3, FLT3-WT; 48 h (Gilteritinib); read-out: IC50
[17] = system: Ba/F3-D835Y (FLT3-D835Y); test: Antiproliferative activity (Table 6); assay type: cell-based, Murin; details: Ba/F3-D835Y; 48 h (Gilteritinib); read-out: IC50
[18] = system: THP-1 (FLT3-WT, t(9:11)); test: Antiproliferative activity (Table 6); assay type: cell-based; details: Homo sapiens; THP-1; 48 h (Gilteritinib); read-out: IC50
[19] = molecular target: BTK WT (Homo sapiens, UniProt Q06187); test: Comparative potency against BTK (Table 8); assay type: biochemical; details: Table 8, wild-type BTK
BTK WT, sequence (Q06187 whole entry): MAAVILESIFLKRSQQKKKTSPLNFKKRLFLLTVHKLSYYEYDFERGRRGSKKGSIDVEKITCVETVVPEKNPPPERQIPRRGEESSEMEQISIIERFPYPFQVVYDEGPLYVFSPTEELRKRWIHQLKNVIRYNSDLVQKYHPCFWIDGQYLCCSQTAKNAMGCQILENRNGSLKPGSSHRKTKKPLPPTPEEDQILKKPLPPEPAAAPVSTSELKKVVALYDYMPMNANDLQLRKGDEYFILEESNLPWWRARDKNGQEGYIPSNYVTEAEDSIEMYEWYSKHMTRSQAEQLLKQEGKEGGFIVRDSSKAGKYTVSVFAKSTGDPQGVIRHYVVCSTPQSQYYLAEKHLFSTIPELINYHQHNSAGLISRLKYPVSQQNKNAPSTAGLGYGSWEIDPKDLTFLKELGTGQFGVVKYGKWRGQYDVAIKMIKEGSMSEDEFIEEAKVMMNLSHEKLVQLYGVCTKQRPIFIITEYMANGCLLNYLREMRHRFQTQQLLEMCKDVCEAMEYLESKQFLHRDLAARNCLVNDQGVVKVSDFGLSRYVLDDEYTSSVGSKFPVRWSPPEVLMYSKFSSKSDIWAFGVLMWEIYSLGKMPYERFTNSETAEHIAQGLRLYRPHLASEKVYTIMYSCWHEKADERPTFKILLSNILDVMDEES

[20] = molecular target: ITK (Homo sapiens, UniProt Q08881); test: Key off-targets (Table 8); assay type: biochemical
ITK, sequence (Q08881 whole entry): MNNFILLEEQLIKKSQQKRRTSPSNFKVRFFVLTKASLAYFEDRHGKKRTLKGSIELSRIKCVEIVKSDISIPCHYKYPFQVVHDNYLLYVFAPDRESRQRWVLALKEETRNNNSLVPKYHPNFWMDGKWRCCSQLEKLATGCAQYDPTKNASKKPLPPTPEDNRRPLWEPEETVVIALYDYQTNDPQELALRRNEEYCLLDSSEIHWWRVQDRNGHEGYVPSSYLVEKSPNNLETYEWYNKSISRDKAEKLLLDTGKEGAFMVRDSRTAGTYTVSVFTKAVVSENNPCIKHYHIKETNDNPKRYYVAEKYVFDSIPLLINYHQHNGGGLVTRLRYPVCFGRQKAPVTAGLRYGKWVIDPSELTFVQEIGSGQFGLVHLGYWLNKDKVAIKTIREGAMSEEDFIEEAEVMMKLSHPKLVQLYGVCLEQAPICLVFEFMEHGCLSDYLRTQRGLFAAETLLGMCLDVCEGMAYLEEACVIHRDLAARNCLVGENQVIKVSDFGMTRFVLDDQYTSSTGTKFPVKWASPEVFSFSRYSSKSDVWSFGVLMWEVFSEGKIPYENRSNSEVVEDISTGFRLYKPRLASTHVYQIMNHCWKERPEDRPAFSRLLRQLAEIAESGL

[21] = molecular target: BTK C481S (Homo sapiens, UniProt Q06187, C481S); test: Comparative potency against BTK (Table 8); assay type: biochemical; details: x printed without key
BTK C481S, sequence (Q06187 whole entry C481S): as the sequence (Q06187 whole entry) above, with C481S counted along it

`CC1(COc2ccc3c(c2)ncn3-c2ccc3cccc(N4CCC(N)CC4)c3n2)COC1` [Crenolanib] gave an IC50 [1] of 258 nM, an IC50 [2] of 31.7 nM and an IC50 [3] of 889 nM. It also gave an IC50 [4] of 35 nM and an IC50 [5] of 2620 nM.

`CCc1nc(C(N)=O)c(Nc2ccc(N3CCC(N4CCN(C)CC4)CC3)c(OC)c2)nc1NC1CCOCC1` [Gilteritinib, reference compound] showed an IC50 [6] of 176 nM, an IC50 [7] of 36.2 nM and an IC50 [8] of 2230 nM. The IC50 [1] was 98.4 nM, the IC50 [2] was 6.8 nM and the IC50 [9] was 10.6 nM. For the same molecule, the IC50 [10] was 58.8 nM, the IC50 [11] was 28.1 nM and the IC50 [12] was 10.4 nM. For the same molecule, the IC50 [3] was 472 nM, the IC50 [13] was 44.7 nM and the IC50 [4] was 26.5 nM. The IC50 [14] was 35.8 nM, the IC50 [5] was 500 nM and the IC50 [15] was 119 nM. It also gave an IC50 [16] of 79.5 nM, an IC50 [17] of 373 nM and an IC50 [18] of 2300 nM.

`NC(=O)[C@H]1CCN(c2ncnc(N)c2F)C[C@@H]1N1CCC[C@@H](Nc2cc(Cl)cc(C(F)(F)F)c2)C1=O` [SNS-062, reference compound] showed an IC50 [19] of 0.4 nM, an IC50 [20] of 49 nM and an IC50 [21] of 4.5 nM.

Reference: US20180344702A1, “METHODS FOR TREATING PATIENTS WITH HEMATOLOGIC MALIGNANCIES” (Aptose Biosciences, Inc., priority 2017, published 2018)
